System: rats
Experiment: Morris Water Maze test of long-term memory in the model of global transient cerebral ischemia with ligation of common carotid arteries
Assay type: in vivo
Description: The comparative study of specific pharmacological activity of the pharmaceutical composition proposed in this invention was conducted by comparison with the citicoline mono-preparation on the model of ischemic stroke in rats. For that purpose, a model of global transient cerebral ischemia with ligation of common carotid arteries was selected on the basis of the Handbook on Conducting Pre-Clinical Studies of Therapeutical Agents, ed. by A.N. Mironov. Long-term memory was evaluated with the use of the Morris Water Maze test (Morris R., "J Neurosci Methods", 1984, Vol. 11, No 1. - P. 47-60 [10]). Table. Effect of the preparations under study on long-term memory in rats in the Morris Water Maze test.

Row | Compound | Latent period of finding platform (mg/kg (citicoline + memantine) 100+0, ischemic stroke model in rats) [s] | Latent period of finding platform (mg/kg (citicoline + memantine) 500+0, ischemic stroke model in rats) [s] | Latent period of finding platform (mg/kg (citicoline + memantine) 1,000+0, ischemic stroke model in rats) [s] | Latent period of finding platform (mg/kg (citicoline + memantine) 0+2, ischemic stroke model in rats) [s] | Latent period of finding platform (mg/kg (citicoline + memantine) 0+10, ischemic stroke model in rats) [s] | Latent period of finding platform (mg/kg (citicoline + memantine) 0+20, ischemic stroke model in rats) [s]
1 | C[N+](C)(C)CCOP(=O)(O)OP(=O)([O-])OC[C@H]1O[C@@H](n2ccc(N)nc2=O)[C@H](O)[C@@H]1O [Citicoline, 5'-O-[hydroxy({hydroxy[2-(trimethylammonio)ethoxy]phosphoryl}oxy)phosphoryl]cytidine] | 20.4 ± 7.6 | 13.6 ± 3.5 | 10.4 ± 3.5 | – | – | –
2 | CC12CC3CC(C)(C1)CC(N)(C3)C2 [Memantine, 3,5-dimethyladamantan-1-amine] | – | – | – | 27.1 ± 7.8 | 14.6 ± 5.2 | 9.2 ± 1.2

Reference: patent publication EP4190319A1, “PHARMACEUTICAL COMPOSITION COMPRISING MEMANTINE AND CITICOLINE” (Novamedica Limited Liability Company, priority 2020, dated 2022)
